# Tests used:
# tyrosinase from mushroom = assay: In vitro test of the inhibition of isolated tyrosinase (L-DOPA to dopachrome, OD 490 nm); format: biochemical; details: for Inhibition of tyrosinase from mushroom, percentage inhibition: 490 nm
# Source text: Tyrosinase catalyses the formation of L-dopaquinone, and then dopachrome, from L-Dopa. Dopachrome is a colored compound which is quantifiable by visible spectrophotometry at 490 nm. The use of an active which is capable of modifying the enzymatic activity manifests itself by a variation in the optical density at 490nm.
# The ratio of the rates of formation of the dopachrome enables the activations or the inhibitions obtained with the various molecules tested to de determined precisely.
# The sample to be tested is incubated in the presence of tyrosinase from mushroom (Sigma) for 5 minutes under agitation. L-DOPA (Sigma), substrate of the tyrosinase, is incubated for 10 minutes in the dark in the presence or the absence of the molecules to be tested. The calculation of the percentage inhibition is made by comparing the OD of the test to the OD of the negative control without molecule.
# Within the context of this in vitro test, the aurone derivatives were tested at final concentrations of 10^-4M and 10^-5M.
# normal human melanocytes = assay: Cytotoxicity by PNPP determination (percentage viability); format: cell-based; details: 24 hours at 37°C, with respect to non-treated wells
# Method: The cytotoxicity of the actives is studied on normal human melanocytes in a 24-well plate by a determination with PNPP (P-nitrophenyl phosphate), a substance which is converted into p-nitrophenol by the intracellular acid phosphatases of viable cells.
# The absorbance of p-nitrophenol at 405 nm is directly proportional to the number of viable cells.
# The actives are tested at 2 different concentrations (10^-4 M and 10^-5 M) and are added to the culture medium and are incubated at 37°C for 24 hours. The determination with PNPP is carried out on a cell mat and the results are expressed as a percentage viability with respect to the negative control (non-treated wells). The results obtained are summarized in Table 9 below : Tableau 9 : Percentages viability obtained for the various aurone derivatives on normal human melanocytes (the molecules were tested at 2 concentrations 10^-4 and 10^-5 M.
# Human tyrosinase = molecular target: T1, Human tyrosinase (Homo sapiens, UniProt P14679); assay: Inhibition of human tyrosinase in a monolayer after 24 h application of the actives on normal human melanocytes (MBTH/L-Dopa, OD 490 nm/protein); format: cell-based; details: for inhibition at 10 µM / inhibition at 100 µM / Inhibition of human tyrosinase after application on normal human melanocytes, percentage inhibition: 24 hours; for inhibition at 10 µM / inhibition at 100 µM: read-out: Inhibition of human tyrosinase after application on normal human melanocytes, percentage inhibition; for Inhibition (%): model of Example 15
# T1 construct: Normal human melanocytes (originating from abdominal plasty) are sown in a 24-well plate; endogenous in cells; host or cells: normal human melanocytes from abdominal plasty; donors of light, brown and black phototype
# T1 sequence (P14679 19-529): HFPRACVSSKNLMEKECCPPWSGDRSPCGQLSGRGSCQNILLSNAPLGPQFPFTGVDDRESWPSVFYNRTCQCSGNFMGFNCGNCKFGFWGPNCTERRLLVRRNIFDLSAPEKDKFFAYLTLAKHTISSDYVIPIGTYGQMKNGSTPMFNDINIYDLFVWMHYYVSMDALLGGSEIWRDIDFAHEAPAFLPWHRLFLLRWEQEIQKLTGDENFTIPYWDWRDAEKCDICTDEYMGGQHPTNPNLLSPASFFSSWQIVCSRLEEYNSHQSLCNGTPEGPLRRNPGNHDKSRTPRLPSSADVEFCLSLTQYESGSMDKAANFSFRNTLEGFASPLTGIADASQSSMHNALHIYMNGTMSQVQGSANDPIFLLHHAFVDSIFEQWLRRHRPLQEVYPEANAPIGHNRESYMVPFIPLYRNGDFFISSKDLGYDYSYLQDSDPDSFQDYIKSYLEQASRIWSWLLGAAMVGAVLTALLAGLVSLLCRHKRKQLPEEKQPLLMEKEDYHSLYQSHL
# Method: Normal human melanocytes (originating from abdominal plasty) are sown in a 24-well plate at the rate of 80,000 cells per well. They are cultivated up to confluence and the actives are applied for 24 hours in the culture media. After 24 hours, the media are removed and the melanocytes are picked up by mechanical action. An extraction is made by heat shock and the supernatants are then recovered and then incubated with MBTH (Sigma) and L-Dopa (Sigma).
# The compound obtained in Example 9b was tested on melanocytes originating from various donors but of light phototypes according to the method described in Example 15. […] Table 6 : Inhibition of tyrosinase by compound 9b on 4 different donors.
# The compound obtained in Example 9b is tested on cultures of melanocytes originating from 2 donors of brown phototypes and from one donor of negroid phototype. The method applied is that described in Example 15.
# A study is made with molecules known in the literature for their depigmenting activity. These molecules are applied to the model described in Example 15 so as to compare their efficiency with respect to the aurones described above.
Compound,"Inhibition of tyrosinase from mushroom, percentage inhibition (tyrosinase from mushroom; 10^-4M)","Inhibition of tyrosinase from mushroom, percentage inhibition (tyrosinase from mushroom; 10^-5M)",Percentages viability (normal human melanocytes; 10^-5 M),inhibition at 10 µM (Human tyrosinase; 10^-5M),Percentages viability (normal human melanocytes; 10^-4 M),inhibition at 100 µM (Human tyrosinase; 10^-4M),other results
"COc1cc(O)c2c(c1)O/C(=C\c1ccccc1)C2=O [Example 6, (Z)-2-Benzylidene-4-hydroxy-6-methoxybenzofuran-3(2H)-one]",31.22 ± 3.94%,0 ± 2.27%,121.56%,0%,,,
CCc1ccc(/C=C2\Oc3cc(O)cc(O)c3C2=O)cc1 [Example 7b],54.57 ± 3.01%,14.63 ±6.73%,143.15%,4.52%,63.52%,,
"COc1cc(OC)c2c(c1)O/C(=C\c1ccc(C#N)cc1)C2=O [Example 5d, (Z)-2-(4-cyanobenzylidene)-4,6-dimethoxybenzofuran-3(2H)-one]",0 ± 2.42%,0 ± 5.47%,96.51%,0%,98.93%,0%,
COc1cc(O)c2c(c1)O/C(=C\c1ccc(C#N)cc1)C2=O [Example 6d],0 ± 3.51%,0 ± 3.94%,119.36%,0%,85.65%,2.31%,
"COc1cc(OC)c2c(c1)O/C(=C\c1ccc(O)cc1)C2=O [Example 5a, (Z)-4,6-dimethoxy-2-(4'-hydroxybenzylidene)benzofuran-3(2H)-one]",0 ± 1.33%,0 ± 3.90%,90.87%,27.4%,104.53%,14.4%,
"O=c1cc(CO)occ1O [Kojic acid, kojic acid]",,,,,,,inhibition (positive control) (tyrosinase from mushroom; kojic acid at 0.01%): 45%
"COc1ccc(/C=C2\Oc3cc(O)cc(O)c3C2=O)cc1 [Example 9, (Z)-4,6-Dihydroxy-2-(4-methoxybenzylidene)benzofuran-3(2H)-one]",,,,14.1%,,10.7%,
"COc1cc(OC)c2c(c1)O/C(=C\c1ccc(SC)cc1)C2=O [Example 5c, (Z)-4,6-dimethoxy-2-(4'-methylthiobenzylidene)benzofuran-3(2H)-one]",0 ± 1.64%,1.07 ± 4.37%,136.13%,4.27%,80.08%,0%,
CCCc1ccc(/C=C2\Oc3cc(O)cc(O)c3C2=O)cc1 [Example 7h],,,,26.9%,,5.43%,
"CCc1ccc(/C=C2\Oc3cc(OC)cc(OC)c3C2=O)s1 [Example 5r, (Z)-4,6-Dimethoxy-2-[(5-ethylthiophene)methylene]benzofuran-3(2H)-one]",,,,2.1%,,11.9%,
COc1cc(O)c2c(c1)O/C(=C\c1ccc(SC)cc1)C2=O [Example 6c],23.65 ± 9.36%,0 ± 5.84%,116.24%,14.2%,,,
"4,6-Dihydroxybenzofuran-3(2H)-one (R1 = OH) and 6-Hydroxybenzofuran-3(2H)-one (R1 = H) [Example 2]",,,126.09%,,103.84%,,"Inhibition of human tyrosinase after application on normal human melanocytes, percentage inhibition (Human tyrosinase; 10^-5M): 9.69%"
"CCc1ccc(/C=C2\Oc3cc(OC)cc(OC)c3C2=O)cc1 [Example 5b, (Z)-4,6-dimethoxy-2-(4'-ethylbenzylidene)benzofuran-3(2H)-one]",0 ± 4.21%,0 ± 2.5%,99.62%,19.4%,,,
"CCc1ccc(/C=C2\Oc3cc(O)cc(O)c3C2=O)o1 [Example 7n, (Z)-4,6-Dihydroxy-2-[(5-ethylfuran)methylene]benzofuran-3(2H)-one]",,,,13.4%,,28.5%,
"O=C1/C(=C/c2ccccc2)Oc2cc(O)cc(O)c21 [Example 7, (Z)-2-Benzylidene-(4,6-dihydroxy) benzofuran-3(2H)-one]",,,,34.9%,,3.37%,"Inhibition of human tyrosinase after application on normal human melanocytes, percentage inhibition (Human tyrosinase; 10^-4M): 3.37 ± 4.8%; Inhibition of human tyrosinase after application on normal human melanocytes, percentage inhibition (Human tyrosinase; 10^-5M): 34.85 ± 3.04%"
"CCOc1ccc(/C=C2\Oc3cc(O)cc(O)c3C2=O)cc1 [Example 9a, (Z)-4,6-Dihydroxy-2-(4'-ethoxybenzylidene)benzofuran-3(2H)-one]",,,,19.9%,,5.25%,
"O=C1/C(=C/c2ccco2)Oc2cc(O)cc(O)c21 [Example 7m, (Z)-4,6-Dihydroxy-2-[(furan)methylene]benzofuran-3(2H)-one]",,,,6.4%,,23.6%,
"COc1cc(OC)c2c(c1)O/C(=C\c1ccccc1)C2=O [Example 5, (Z)-2-Benzylidene-4,6-dimethoxybenzofuran-3(2H)-one]",0 ± 1.58%,0 ± 0.28%,98.55%,0%,83.1%,0%,
"O=C1/C(=C/c2cccs2)Oc2cc(O)cc(O)c21 [Example 7p, (Z)-4,6-Dihydroxy-2-[(thiophene)methylene]benzofuran-3(2H)-one]",,,,15.3%,,35.2%,
"COc1cc(OC)c2c(c1)O/C(=C\c1ccco1)C2=O [Example 5m, (Z)-4,6-Dimethoxy-2-[(furan)methylene]benzofuran-3(2H)-one]",,,,6.4%,,19.5%,
"O=C1O[C@H]([C@@H](O)CO)C(O)=C1O [VitC, Vitamin C, reference compound]",,,,,,,Inhibition (%) (Human tyrosinase; 0.03%): -5.68%; Inhibition (%) (Human tyrosinase; 0.3%): 49.28%; Inhibition (%) (Human tyrosinase; 3%): 97.77%
"Cc1cc(/C=C2\Oc3cc(O)cc(O)c3C2=O)oc1C [Example 7o, (Z)-4,6-Dihydroxy-2-[(4,5-dimethylfuran)methylene]benzofuran-3(2H)-one]",,,,4.5%,,13.6%,
"Cc1ccc(/C=C2\Oc3cc(O)cc(O)c3C2=O)s1 [Example 7q, (Z)-4,6-Dihydroxy-2-[(5-methylthiophene)methylene]benzofuran-3(2H)-one]",,,,7%,,16.4%,
"CCc1ccc(/C=C2\Oc3cc(OC)cc(OC)c3C2=O)o1 [Example 5n, (Z)-4,6-Dimethoxy-2-[(5-ethylfuran)methylene]benzofuran-3(2H)-one]",,,,0%,,7.8%,
"COc1cc(OC)c2c(c1)OCC2=O [Example 4, 4,6-Dimethoxybenzofuran-3(2H)-one]",,,85.33%,0%,106.77%,0%,
